Reference: US8859580B2 (Boehringer Ingelheim International GmbH, priority 2007, dated 2014)

The compounds below were run against T1, 11β-HSD1 (Homo sapiens, UniProt P28845) (assay: In vitro inhibition of 11β-HSD1, HTRF detection of cortisol generated from cortisone by human liver microsomes). Conditions: 11β-HSD IC50 (nM), 1 hour at 37° C., pH 6.0, NADPH 200 μM, cortisone 80 nM, inhibition relative to carbenoxolone signal.
T1 construct: detecting cortisol generated from cortisterone by human liver microsomes; from tissue; host or cells: human liver microsomes
T1 sequence (P28845 whole entry): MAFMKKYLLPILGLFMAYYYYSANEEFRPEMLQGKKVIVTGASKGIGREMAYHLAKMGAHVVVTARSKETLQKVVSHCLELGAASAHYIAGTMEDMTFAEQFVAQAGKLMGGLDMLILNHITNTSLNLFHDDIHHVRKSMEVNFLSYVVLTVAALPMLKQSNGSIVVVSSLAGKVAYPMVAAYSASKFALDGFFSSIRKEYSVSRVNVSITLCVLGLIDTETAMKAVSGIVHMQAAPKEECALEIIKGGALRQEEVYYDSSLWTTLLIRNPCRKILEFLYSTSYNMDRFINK
Type: biochemical
In short: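 Cortisol formed from cortisone by human liver microsomes quantified by competitive HTRF immunoassay (XL665-cortisol, Eu-cryptate anti-cortisol antibody), 2 h detection, Em665/Em615 ratio converted via cortisol calibration curve. Percent inhibition relative to carbenoxolone signal; IC50 from curves.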
With `C[C@H]1[C@H]2Cc3ccc(O)cc3[C@]1(C)CCN2C(=O)c1ccc2nc[nH]c2c1` [Example 247, (3H-Benzoimidazol-5-yl)-[(2R,6R,11R)-8-hydroxy-6,11-dimethyl-1,2,5,6-tetrahydro-4H-2,6-methano-benzo[d]azocin-3-yl)-methanone] the IC50 was 190 nM.
For `Cc1ccc2[nH]cc(C(=O)N3CC[C@@]4(C)c5cccc(O)c5C[C@@H]3C4(C)C)c2c1` [Example 248, [(2R,6S)-10-Hydroxy-6,11,11-trimethyl-1,2,5,6-tetrahydro-4H-2,6-methano-benzo[d]azocin-3-yl)-(5-methyl-1H-indol-3-yl)-methanone], the IC50 was 1510 nM.
For `C[C@@H]1[C@H]2Cc3ccc(-c4ccccc4)cc3[C@]1(C)CCN2C(=O)c1ccc2nc[nH]c2c1` [Example 249, (3H-Benzoimidazol-5-yl)-[(2R,6R,11S)-6,11-dimethyl-8-phenyl-1,2,5,6-tetrahydro-4H-2,6-methano-benzo[d]azocin-3-yl)-methanone], the IC50 was 265 nM.
Compound `C[C@@H]1[C@H]2Cc3ccc(-c4cccnc4)cc3[C@]1(C)CCN2C(=O)c1ccc2nc[nH]c2c1` [Example 250, (3H-Benzoimidazol-5-yl)-[(2R,6R,11S)-6,11-dimethyl-8-pyridin-3-yl-1,2,5,6-tetrahydro-4H-2,6-methano-benzo[d]azocin-3-yl]-methanone] has an IC50 of 53 nM.
Work on `C[C@@H]1[C@H]2Cc3ccc(-c4ccncc4)cc3[C@]1(C)CCN2C(=O)c1ccc2nc[nH]c2c1` [Example 251, (3H-Benzoimidazol-5-yl)-[(2R,6R,11S)-6,11-dimethyl-8-pyridin-4-yl-1,2,5,6-tetrahydro-4H-2,6-methano-benzo[d]azocin-3-yl]-methanone] yielded an IC50 of 66 nM.
For `C[C@@H]1[C@H]2Cc3ccc(-c4cncnc4)cc3[C@]1(C)CCN2C(=O)c1ccc2nc[nH]c2c1` [Example 252, (3H-Benzoimidazol-5-yl)-[(2R,6R,11S)-6,11-dimethyl-8-pyrimidin-5-yl-1,2,5,6-tetrahydro-4H-2,6-methano-benzo[d]azocin-3-yl]-methanone], the IC50 was 61 nM.
Work on `Cc1cnc2cc3c(cc2n1)C[C@H]1N(C(=O)c2ccc4nc[nH]c4c2)CC[C@]3(C)C1(C)C` [Example 254, (3H-Benzoimidazol-5-yl)-[(7R,11S)-6,7,8,9,10,11-hexahydro-3,11,13,13-tetramethyl-7,11-methano-pyrazino[2,3-i][3]benzazocin-8-yl]-methanone] yielded an IC50 of 742 nM.
Work on `Cc1cnc2cc3c(cc2n1)[C@]1(C)CCN(C(=O)c2ccc4nc[nH]c4c2)[C@H](C3)C1(C)C` [Example 255, (3H-Benzoimidazol-5-yl)-[(7R,11S)-6,7,8,9,10,11-hexahydro-2,11,13,13-tetramethyl-7,11-methano-pyrazino[2,3-i][3]benzazocin-8-yl]-methanone] yielded an IC50 of 742 nM.
Compound `Cn1cc(C(=O)N2CC[C@@]3(C)c4ccccc4C[C@@H]2C3(C)C)c2ccccc21` [Example 256, (1-Methyl-1H-indol-3-yl)-[(2R,6S)-6,11,11-trimethyl-1,2,5,6-tetrahydro-4H-2,6-methano-benzo[d]azocin-3-yl]-methanone] has an IC50 of 222 nM.
`Cn1nnc2cc3c(cc21)[C@]1(C)CCN(C(=O)c2ccc4nc[nH]c4c2)[C@H](C3)C1(C)C` [Example 257, (3H-Benzoimidazol-5-yl)-[(6R,10S)-5,6,7,8,9,10-hexahydro-1,10,12,12-tetramethyl-6,10-methano-triazolo[5,4-i][3]benzazocin-7-yl]-methanone] was tested, and the IC50 was 209 nM.
Work on `Cn1nnc2cc3c(cc21)C[C@H]1N(C(=O)c2ccc4nc[nH]c4c2)CC[C@]3(C)C1(C)C` [Example 258, (3H-Benzoimidazol-5-yl)-[(6R,10S)-5,6,7,8,9,10-hexahydro-3,10,12,12-tetramethyl-6,10-methano-triazolo[4,5-i][3]benzazocin-7-yl]-methanone] yielded an IC50 of 33 nM.
Work on `CC1(C)[C@H]2Cc3ccccc3[C@]1(C)CCN2C(=O)c1c[nH]c2ccccc12` [Example 259, (1H-Indol-3-yl)-[(2R,6S)-6,11,11-trimethyl-1,2,5,6-tetrahydro-4H-2,6-methano-benzo[d]azocin-3-yl]-methanone] yielded an IC50 of 115 nM.
`CC(O)(c1cccc(C(=O)N2CC[C@@]3(C)c4cccc(O)c4C[C@@H]2C3(C)C)c1)C(F)(F)F` (stereo partly drawn) [Example 260, [(2R,6S)-10-Hydroxy-6,11,11-trimethyl-1,2,5,6-tetrahydro-4H-2,6-methano-benzo[d]azocin-3-yl]-[3-(2,2,2-trifluoro-1-hydroxy-1-methyl-ethyl)-phenyl]-methanone] gave an IC50 of 181 nM.
For `COc1ccc2c(c1[N+](=O)[O-])[C@]1(C)CCN(C(=O)c3ccc4nc[nH]c4c3)[C@H](C2)[C@H]1C` [Example 261, (3H-Benzoimidazol-5-yl)-[(2R,6R,11S)-8-methoxy-6,11-dimethyl-7-nitro-1,2,5,6-tetrahydro-4H-2,6-methano-benzo[d]azocin-3-yl]-methanone], the IC50 was 47 nM.
With `Cc1nccc(-c2ccc3c(c2)[C@]2(C)CCN(C(=O)c4ccc5nc[nH]c5c4)[C@H](C3)[C@H]2C)n1` [Example 262, (3H-Benzoimidazol-5-yl)-[(2R,6R,11S)-6,11-dimethyl-8-(2-methyl-pyrimidin-4-yl)-1,2,5,6-tetrahydro-4H-2,6-methano-benzo[d]azocin-3-yl]-methanone] the IC50 was 73 nM.
`Cc1ccc(-c2ccc3c(c2)[C@]2(C)CCN(C(=O)c4ccc5nc[nH]c5c4)[C@H](C3)[C@H]2C)nn1` [Example 263, (3H-Benzoimidazol-5-yl)-[(2R,6R,11S)-6,11-dimethyl-8-(6-methyl-pyridazin-3-yl)-1,2,5,6-tetrahydro-4H-2,6-methano-benzo[d]azocin-3-yl]-methanone] was tested, and the IC50 was 71 nM.
`C[C@@H]1[C@H]2Cc3ccc(-c4ccncn4)cc3[C@]1(C)CCN2C(=O)c1ccc2nc[nH]c2c1` [Example 264, (3H-Benzoimidazol-5-yl)-[(2R,6R,11S)-6,11-dimethyl-8-pyrimidin-4-yl-1,2,5,6-tetrahydro-4H-2,6-methano-benzo[d]azocin-3-yl]-methanone] was tested, and the IC50 was 78 nM.
`CC1(C)[C@H]2Cc3cc4nn[nH]c4cc3[C@]1(C)CCN2C(=O)c1ccc2nc[nH]c2c1` [Example 265, (3H-Benzoimidazol-5-yl)-[(6R,10S)-5,6,7,8,9,10-hexahydro-10,12,12-trimethyl-6,10-methano-1H-triazolo[5,4-i][3]benzazocin-7-yl]-methanone] was tested, and the IC50 was 22 nM.
`CC1(C)[C@H]2Cc3cc4nc(-c5cnccn5)[nH]c4cc3[C@]1(C)CCN2C(=O)c1ccc2nc[nH]c2c1` [Example 266, (3H-Benzoimidazol-5-yl)-[(6R,10S)-5,6,7,8,9,10-hexahydro-10,12,12-trimethyl-2-pyrazin-2-yl-6,10-methano-imidazo[5,4-i][3]benzazocin-7-yl]-methanone] gave an IC50 of 42 nM.
`COc1ccc2c(c1N)[C@]1(C)CCN(C(=O)c3ccc4nc[nH]c4c3)[C@H](C2)[C@H]1C` [Example 267, (3H-Benzoimidazol-5-yl)-[(2R,6R,11S)-7-amino-8-methoxy-6,11-dimethyl-1,2,5,6-tetrahydro-4H-2,6-methano-benzo[d]azocin-3-yl]-methanone] showed an IC50 of 66 nM.
`COc1ccc2c(c1NS(C)(=O)=O)[C@]1(C)CCN(C(=O)c3ccc4nc[nH]c4c3)[C@H](C2)[C@H]1C` [Example 268, N-[(2R,6R,11S)-3-(3H-Benzoimidazole-5-carbonyl)-8-methoxy-6,11-dimethyl-1,2,3,4,5,6-hexahydro-2,6-methano-benzo[d]azocin-7-yl]-methanesulfonamide] showed an IC50 of 931 nM.
For `CC(=O)N1CCC(c2nc3cc4c(cc3[nH]2)[C@]2(C)CCN(C(=O)c3ccc5nc[nH]c5c3)[C@H](C4)C2(C)C)CC1` [Example 269, [(6R,10S)-2-(1-Acetyl-piperidin-4-yl)-5,6,7,8,9,10-hexahydro-10,12,12-trimethyl-6,10-methano-imidazo[5,4-i][3]benzazocin-7-yl]-(3H-benzoimidazol-5-yl)-methanone], the IC50 was 63 nM.
`COc1ccc2c(c1-n1cccc1)[C@]1(C)CCN(C(=O)c3ccc4nc[nH]c4c3)[C@H](C2)[C@H]1C` [Example 270, (3H-Benzoimidazol-5-yl)-[(2R,6R,11S)-8-methoxy-6,11-dimethyl-7-pyrrol-1-yl-1,2,5,6-tetrahydro-4H-2,6-methano-benzo[d]azocin-3-yl)-methanone] gave an IC50 of 99 nM.
`CC1(C)[C@H]2Cc3cc4nc(C5CC5)[nH]c4cc3[C@]1(C)CCN2C(=O)c1ccc2nc[nH]c2c1` [Example 271, (3H-Benzoimidazol-5-yl)-[(6R,10S)-2-cyclopropyl-5,6,7,8,9,10-hexahydro-10,12,12-trimethyl-6,10-methano-imidazo[5,4-i][3]benzazocin-7-yl]-methanone] gave an IC50 of 50 nM.
With `CC(C)(C)c1nc2cc3c(cc2[nH]1)[C@]1(C)CCN(C(=O)c2ccc4nc[nH]c4c2)[C@H](C3)C1(C)C` [Example 273, (3H-Benzoimidazol-5-yl)-[(6R,10S)-2-tert-butyl-5,6,7,8,9,10-hexahydro-10,12,12-trimethyl-6,10-methano-imidazo[5,4-i][3]benzazocin-7-yl]-methanone] the IC50 was 35 nM.
Work on `CC1(C)[C@H]2Cc3cc4nc(-c5cccnc5)[nH]c4cc3[C@]1(C)CCN2C(=O)c1ccc2nc[nH]c2c1` [Example 274, (3H-Benzoimidazol-5-yl)-[(6R,10S)-5,6,7,8,9,10-hexahydro-10,12,12-trimethyl-2-pyridin-3-yl-6,10-methano-imidazo[5,4-i][3]benzazocin-7-yl]-methanone] yielded an IC50 of 51 nM.

Same assay, conditions: 1 hour at 37° C., pH 6.0, NADPH 200 μM, cortisone 80 nM, inhibition relative to carbenoxolone signal, read-out: 11β-HSD IC50
`Cn1cc(C2=NC3=CC4=C(CC3=N2)C[C@H]2N(C(=O)c3ccc5nc[nH]c5c3)CC[C@]4(C)C2(C)C)ccc1=O` [Example 272, (3H-Benzoimidazol-5-yl)-[(6R,10S)-5,6,7,8,9,10-hexahydro-10,12,12-trimethyl-2-(1-methyl-6-oxo-1,6-dihydro-pyridin-3-yl)-6,10-methano-imidazo[5,4-i][3]benzazocin-7-yl]-methanone] showed an IC50 of 44 nM.
